The record followed here is patent US20240197738A1, “COMPOUND 7AI IN TREATING EWING SARCOMA BY INHIBITING OTUD7A” (The University of North Carolina at Chapel Hill, priority 2021, published 2024).

Data set [1] addresses T1, His-tagged OTUD7A OTU domain (aa183-449) (Homo sapiens, UniProt Q8TE49).
T1 construct: the bacterially produced His-tagged OTUD7A OTU domain (aa183-449) was purified; made in house; host or cells: E. coli BL21 (pET28a vector)
Briefly: Isothermal titration calorimetry (ITC) of 7Ai with OTUD7A OTU domain. Conditions: bacterially produced His-tagged OTUD7A OTU domain (aa183-449), read-out: binding affinity of 7Ai in vitro (ITC). Here is the method:
ITC measurements were performed using a MicroCal auto-iTC200 calorimeter (MicroCal, LLC) as described previously. Briefly, His-tagged OTU domain of OTUD7A proteins were purified using BL21 strain upon induced by 0.3 mM IPTG when OD600 around 0.6 overnight at 16° C. Then purified human His-tagged OTU domain of OTUD7A was dialyzed against 50 mM HEPES buffer (pH 7.2) with 100 mM NaCl for overnight at 4° C. The concentration of the protein was determined by band intensity in a gel-cod staining SDS-PAGE gel. The ITC assay was carried out at 37 °C. The dialyzed His-OTUD7A-OTU proteins were diluted to 40 μM in the dialysis buffer containing 4% DMSO. Then, 400 μM 7Ai, dissolved in the same dialysis buffer with 4% DMSO (50 mM HEPES buffer (pH 7.2) with 100 mM NaCl) was injected into 0.4 mL of His-OTUD7A-OTU protein in the chamber for every 180 s. The dissociation constants and thermodynamic parameters were determined by using the embedded software package Origin7 (Microcal).

For data set [2], the target named is OTUD7A binding to EWS-FLI1 (Homo sapiens, UniProt Q8TE49). Put plainly: OTUD7A binding to EWS-FLI1 in cells. The data set is classed as cell-based. Here is the method: (§1) Cells were lysed in EBC buffer (50 mM Tris pH 7.5, 120 mM NaCl, 0.5% NP-40) or Triton X-100 buffer (50 mM Tris pH 7.5, 150 mM NaCl, 1% Triton X-100) supplemented with protease inhibitors (Complete Mini, Roche) and phosphatase inhibitors (phosphatase inhibitor cocktail set I and II, Calbiochem). The protein concentrations of whole cell lysates were measured by NanoDrop OneC using the Bio-Rad protein assay reagent as described previously. Equal amounts of whole cell lysates were resolved by SDS-PAGE and immunoblotted with indicated antibodies. For immunoprecipitations analysis, unless specified, 1000 μg lysates were incubated with the indicated antibody (1-2 μg) for 3-4 hr at 4° C. followed by 1 hr incubation with 10 μL Protein A magnetic beads (New England Biolabs). Or 1000 μg lysates containing tagged molecules were incubated with agarose beads coupled antibodies for the specific tag for 3-4 hr at 4° C. For endogenous IPs, incubation of cell lysates with antibodies was extended to overnight. The recovered immuno-complexes were washed five times with NETN buffer (20 mM Tris, pH 8.0, 100 mM NaCl, 1 mM EDTA and 0.5% NP-40) before being resolved by SDS-PAGE and immunoblotted with indicated antibodies.

The next data set has as its target T2, OTUD7B (Homo sapiens, UniProt Q6GQQ9).
T2 construct: endogenous in cells; host or cells: MHH-ES-1, EWS894
Briefly: Immunoblot of known OTUD7B substrates (mTORC2, APC/Cdh1). The data set is classed as cell-based. Conditions: MHH-ES-1 or EWS894 cells, 12 hrs (FIG. 5E). Here is the method:
as §1

Data set [3] deals with EWS-FLI1 target genes (NKX2.2, PSPH, LOX, TGFBR2). Briefly: RT-PCR of EWS-FLI1 downstream target genes. The data set is classed as cell-based, human. Here is the method:
(§2) Cells were isolated by dissociation with 0.05% Trypsin, followed by media quenching. The cells were spun down at 300×rcf for 5 minutes. The media was aspirated, the pellet was suspended with 1×PBS, and then the cells were spun down again. The PBS was aspirated. RNA extraction was performed with an RNA extraction kit (BioBasic BS584). The final elution step was done with 50 μL of RNAse-free water. The […] with the NanoDrop OneC (Thermo Fisher Scientific). Three biological replicates were performed for RNA extraction. Quartile analysis was done to exclude outliers and significance was determined by one-way ANOVA tests.

The next data set deals with EWS-FLI1 mRNA. Briefly: RT-PCR of EWS-FLI1 mRNA levels. Conditions: 7Ai treatment. The data set is classed as cell-based, human. Here is the method: as §2
For the next data set, the system named is Jurkat cells. Briefly: Cell proliferation of Jurkat cells. The data set is classed as cell-based, human. Here is the method: (§3) 2,000 indicated cells were seeded in each well of 96-well plates for MTT assays to monitor cell viability at indicated time periods using a method adapted from https://www.thermofisher.com/us/en/home/references/protocols/cell-culture/mtt-assay-protocol/vybrant-mtt-cell-proliferation-assay-kit.html. Briefly, at indicated time points post-cell seeding, 10 μL MTT solution was added into each well and incubated in the culture incubator (37° C. with 5% CO2) for 4 hrs. Then medium was removed and 100 μL DMSO was added into each well to dissolve the formazan crystal and incubated for 10 min at 37° C. After thorough mixing, absorbance at 540 nm was measured using the BioTek Cytation 5 Cell Imaging reader.

A further data set has as its system EWS-ERG. Briefly: Immunoblot of EWS-ERG protein levels. The data set is classed as cell-based, human. Conditions: A673 cells with EWS-ERG replacing EWS-FLI1. Here is the method:
as §1

Data set [4] deals with A673 cells. Put plainly: Cell viability (MTT) assay, A673. The data set is classed as cell-based, human. To be noted: A673, 3-day treatment. Here is the method: as §3
The subject of data set [5] is A673 cells expressing EWS-FLI1-3A. Put plainly: Growth of A673 cells expressing EWS-FLI1-3A. The data set is classed as cell-based, human. Here is the method: as §3
A further data set relates to HUVEC cells. Put plainly: Cell viability (MTT) assay, HUVEC. The data set is classed as cell-based, human. Conditions: 72 hrs (FIG. 5S). Here is the method: as §3
A further data set has as its system EWS-FLI1. Briefly: Immunoblot of EWS-FLI1 protein abundance in cells. The data set is classed as cell-based, human.
The test system of data set [6] is A673 cells. Put plainly: Transwell migration assay, A673. The data set is classed as cell-based, human. To be noted: A673 cells in vitro. Here is the method:
1×10^5 cells were plated in an […], 24-well plate chamber insert (Corning Life Sciences, catalog no. 3422) with serum free DMEM medium at the top of the insert and the same medium containing 20% fetal bovine serum (FBS) at the bottom of the insert. Cells were incubated for 24 hr and fixed with 4% paraformaldehyde for 15 min. After washing with PBS, cells at the top of the insert were scraped with a cotton swab. Cells adherent to the bottom were stained with 0.5% crystal violet blue for 60 min and then washed with double-distilled H2O (ddH2O). The positively stained cells were examined under the microscope.

In a further data set the test system is MHH-ES-1 cells. Put plainly: Cell viability (MTT) assay, MHH-ES-1. Conditions: MHH-ES-1, 3-day treatment. The data set is classed as cell-based, human. Here is the method:
as §3

T1 sequence (Q8TE49 183-449): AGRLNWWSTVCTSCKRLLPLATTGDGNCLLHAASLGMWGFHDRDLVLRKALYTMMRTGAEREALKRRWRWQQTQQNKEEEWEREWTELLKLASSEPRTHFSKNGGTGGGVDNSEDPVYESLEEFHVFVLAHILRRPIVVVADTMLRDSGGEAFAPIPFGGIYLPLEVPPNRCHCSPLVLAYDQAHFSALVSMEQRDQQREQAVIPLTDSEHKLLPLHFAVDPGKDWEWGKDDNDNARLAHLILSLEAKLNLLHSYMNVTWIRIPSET
T2 sequence (Q6GQQ9 whole entry): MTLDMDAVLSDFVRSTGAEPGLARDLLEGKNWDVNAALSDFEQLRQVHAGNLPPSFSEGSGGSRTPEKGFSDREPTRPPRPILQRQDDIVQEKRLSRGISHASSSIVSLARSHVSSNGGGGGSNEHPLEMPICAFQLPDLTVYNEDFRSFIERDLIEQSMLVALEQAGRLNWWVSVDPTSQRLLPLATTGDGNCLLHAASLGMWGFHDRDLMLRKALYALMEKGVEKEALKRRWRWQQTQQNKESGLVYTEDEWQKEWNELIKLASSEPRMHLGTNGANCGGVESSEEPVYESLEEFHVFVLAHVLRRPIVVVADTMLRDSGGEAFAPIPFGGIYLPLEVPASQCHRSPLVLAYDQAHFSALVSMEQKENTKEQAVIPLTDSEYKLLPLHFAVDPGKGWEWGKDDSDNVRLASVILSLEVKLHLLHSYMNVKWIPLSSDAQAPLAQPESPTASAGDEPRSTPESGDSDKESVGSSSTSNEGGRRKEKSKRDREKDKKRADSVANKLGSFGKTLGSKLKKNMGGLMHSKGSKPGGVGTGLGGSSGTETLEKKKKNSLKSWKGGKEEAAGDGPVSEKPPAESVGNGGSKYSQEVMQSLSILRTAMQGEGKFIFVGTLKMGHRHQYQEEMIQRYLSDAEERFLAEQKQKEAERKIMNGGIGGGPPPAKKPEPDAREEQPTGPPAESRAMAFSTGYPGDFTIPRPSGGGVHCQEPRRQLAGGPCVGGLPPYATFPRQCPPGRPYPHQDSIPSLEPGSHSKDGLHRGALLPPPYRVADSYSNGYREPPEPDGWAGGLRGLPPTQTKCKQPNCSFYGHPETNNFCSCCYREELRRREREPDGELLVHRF
Chain of OTUD7A binding to EWS-FLI1 (Q8TE49 whole entry): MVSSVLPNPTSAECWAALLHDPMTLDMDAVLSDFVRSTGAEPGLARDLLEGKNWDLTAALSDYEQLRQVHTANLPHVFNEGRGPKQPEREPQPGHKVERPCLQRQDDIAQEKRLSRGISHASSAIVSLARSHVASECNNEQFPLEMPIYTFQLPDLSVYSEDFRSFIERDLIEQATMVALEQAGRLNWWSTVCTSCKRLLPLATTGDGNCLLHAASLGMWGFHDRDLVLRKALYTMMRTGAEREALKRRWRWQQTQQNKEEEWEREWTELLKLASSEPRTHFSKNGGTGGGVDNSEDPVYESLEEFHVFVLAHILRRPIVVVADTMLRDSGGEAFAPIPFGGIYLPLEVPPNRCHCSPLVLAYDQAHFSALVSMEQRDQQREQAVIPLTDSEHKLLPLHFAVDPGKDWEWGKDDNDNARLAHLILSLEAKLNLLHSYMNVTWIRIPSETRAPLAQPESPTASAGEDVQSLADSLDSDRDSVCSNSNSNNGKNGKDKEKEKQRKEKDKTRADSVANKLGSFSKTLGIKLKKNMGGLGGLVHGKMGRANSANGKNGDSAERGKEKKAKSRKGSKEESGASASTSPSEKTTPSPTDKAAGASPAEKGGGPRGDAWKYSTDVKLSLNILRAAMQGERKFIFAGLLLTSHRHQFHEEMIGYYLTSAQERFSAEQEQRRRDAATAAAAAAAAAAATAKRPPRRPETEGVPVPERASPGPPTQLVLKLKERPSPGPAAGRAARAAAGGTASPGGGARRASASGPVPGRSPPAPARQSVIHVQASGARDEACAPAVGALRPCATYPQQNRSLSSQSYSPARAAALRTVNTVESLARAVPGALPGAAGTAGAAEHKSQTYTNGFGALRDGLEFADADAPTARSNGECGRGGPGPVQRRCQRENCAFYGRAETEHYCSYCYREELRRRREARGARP

Regarding `Cn1nccc1-c1cc(-c2ccnn2C)n2nc(C(=O)Nc3cnn(Cc4c(Cl)cccc4Cl)c3)cc2n1` [7Ai], the Kd in [1] is around 1.1 µM. In addition, the “OTUD7A binding to EWS-FLI1” value in data set [2] was “did not interfere with OTUD7A binding to EWS-FLI1”. Also, at OTUD7B, the “OTUD7B activities (known OTUD7B substrates mTORC2 and APC/Cdh1)” value is recorded as “did not significantly affect OTUD7B activities”. The “transcription of EWS-FLI1 target genes NKX2.2 and PSPH” value in data set [3] (A673 cells (FIGS. 5K-5L)) is given as “reduced transcription of EWS-FLI1 target genes”. For the same molecule, the “transcription of genes negatively regulated by EWS-FLI1 (LOX and TGFBR2)” value in [3] (A673 cells (FIGS. 5M-5N)) is “increased transcription of genes negatively regulated by EWS-FLI1”. Also, in the data set on EWS-FLI1 mRNA, the “EWS-FLI1 mRNA levels” value is on record as “did not affected EWS-FLI1 mRNA levels”. For the same molecule, the cell proliferation entry with Jurkat cells is listed as “reduced cell proliferation of Jurkat cells”. Also, the EWS-ERG protein levels result in the data set on EWS-ERG is “reduced EWS-ERG protein levels”. For the same molecule, the “proliferation (cell viability)” value in the data set with A673 cells [4] is “reduced proliferation”; with HUVEC cells, “neglectable effects”; in the data set on MHH-ES-1 cells it was “reduced MHH-ES-1 proliferation”. In addition, in [5], the cell growth result was “failed to significantly suppress growth”. Also, the EWS-FLI1 protein abundance entry with EWS-FLI1 (A673-teton-shOTUD7A cells) is recorded as “reduced EWS-FLI1 protein abundance in A673-teton-shOTUD7A”; in the data set on EWS-FLI1 (A673 and MHH-ES-1 cells, doses of 7Ai for 3 days), “efficiently reduced EWS-FLI1 protein abundance in both Ewing sarcoma cells”; in the data set on EWS-FLI1 (parental A673 cells, 10 μM, 12 hrs (FIG. 5D)) it was “reduced EWS-FLI1 protein abundance in parental A673”. For the same molecule, the EWS-FLI1 protein levels entry in the data set with EWS-FLI1 (A673 and SK-N-MC cells, 10 μM, 12 hrs) is reported as “reduced EWS-FLI1 protein levels in both Ewing cells”. For the same molecule, the “EWS-FLI1 protein levels, dose dependence” value with EWS-FLI1 (A673 cells, indicated doses, 12 hrs (FIG. 5B)) was “reduced EWS-FLI1 protein levels in a dose-dependent manner”. Besides, the EWS-FLI1 protein expression result in the data set on EWS-FLI1 (MHH-ES-1, EWS894 (FIG. 5E, 12 hrs), SK-N-MC and EWS502 cells) is reported as “efficiently reduced EWS-FLI1 protein expression”. For the same molecule, in the data set with A673 cells [6], the cell migratory ability result is listed as “significantly reduced A673 cell migratory ability”.
